# Experimental data as given in the supplement of paper PMC10307832.
# Legend:
# Experiment in all cases: relative viability (nuclei count vs DMSO), 5 days (fraction); higher = more cells survive
# [1] = compound: CN(C)C(=N)NC(=N)N [Metformin] + Cc1cc(Nc2cc(N3CCN(C)CC3)nc(Sc3ccc(NC(=O)C4CC4)cc3)n2)n[nH]1 [Tozasertib] (partner 0.1 µM)
# Method in brief: (§1)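 A single step with final 0.05% Triton X-100, 1% formaldehyde and 1 ug/ml Hoechst fixed the cells and stained nuclei 5 days after treatment. Lung cancer cell lines in 1536-well plates had been treated by pin tool the day after seeding with one drug alone or a fixed anchor-drug dose plus five library-drug doses (not always all listed) in √10 steps, and nuclei were counted on 4× images. Relative viability is the ratio of nuclei in treated wells to nuclei in vehicle wells, taken as the median of duplicate plates.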
# [2] = compound: CN(C)C(=N)NC(=N)N [Metformin] + N=C(N)NC(=N)NCCc1ccccc1 [Phenformin] (partner 250 µM)
# Method in brief: as §1
# [3] = compound: N#CC1(c2ccc(NC(=O)c3cccnc3NCc3ccncc3)cc2)CCCC1 [Apatinib] + CC(C)C[C@H](NC(=O)[C@H](Cc1ccccc1)NC(=O)c1cnccn1)B(O)O [Bortezomib] (partner 0.002 µM)
# Method in brief: as §1
# [4] = compound: N#CC1(c2ccc(NC(=O)c3cccnc3NCc3ccncc3)cc2)CCCC1 [Apatinib] + CS(=O)(=O)CCNCc1ccc(-c2ccc3ncnc(Nc4ccc(OCc5cccc(F)c5)c(Cl)c4)c3c2)o1 [Lapatinib] (partner 2 µM)
# Method in brief: as §1
Cell Line,relative viability ([1]; first compound 10 µM),relative viability ([1]; first compound 31.62 µM),relative viability ([1]; first compound 100 µM),relative viability ([1]; first compound 316.23 µM),relative viability ([1]; first compound 1000 µM),relative viability ([2]; first compound 10 µM),relative viability ([2]; first compound 31.62 µM),relative viability ([2]; first compound 100 µM),relative viability ([2]; first compound 316.23 µM),relative viability ([2]; first compound 1000 µM),relative viability ([3]; first compound 0.08 µM),relative viability ([3]; first compound 0.253 µM),relative viability ([3]; first compound 0.8 µM),relative viability ([3]; first compound 2.53 µM),relative viability ([3]; first compound 8 µM),relative viability ([4]; first compound 0.08 µM),relative viability ([4]; first compound 0.253 µM),relative viability ([4]; first compound 0.8 µM),relative viability ([4]; first compound 2.53 µM),relative viability ([4]; first compound 8 µM)
NCI-H3122,0.248,0.31,0.388,0.255,0.209,0.307,0.303,0.322,0.287,0.288,1.04,1.05,1.05,1.04,0.958,1.03,1.02,1.01,0.989,1.01
LOU-NH91,0.595,0.633,0.703,0.633,0.65,0.731,0.593,0.545,0.755,0.734,0.466,0.492,0.543,0.443,0.476,0.727,0.726,0.754,0.712,0.77
LXF-289,0.191,0.179,0.206,0.174,0.19,0.48,0.525,0.537,0.509,0.51,1.02,0.983,0.984,0.936,0.96,0.935,0.894,0.888,0.838,0.875
